From patent US7767240B2, “Microbiological control in poultry processing” (priority 2001, dated 2010)
Values joined by “and” are separate entries in the source; they are usually repeats but may differ in a detail not shown here. Identical values can stand only once.

Assays:
Assay type in all cases: cell-based
[1] = tested on: Pseudomonas aeruginosa (ATCC 15442) biofilm; experiment: MBEC biofilm eradication test (Calgary biofilm device); settings: one-hour biocide contact time; for MBEC (minimum biofilm eradication concentration): individual determinations
Excerpt: Table 45 summarizes test results performed at MBEC Biofilm Technologies, Inc., Calgary, Canada on the effectiveness of various biocides on biofilm removal. The test procedure, developed at the University of Calgary, utilizes a device which allows the growth of 96 identical biofilms under carefully controlled conditions. The device consists of a two-part vessel comprised of an upper plate containing 96 pegs that seals against a bottom plate. The bottom plate can consist of either a trough (for biofilm growth) or a standard 96-well plate (for biocide challenge). The biofilms develop on the 96 pegs. The device has been used as a general method for evaluating the efficacy of antibiotics and biocides towards biofilms. See in this connection H. Ceri, et al., “The MBEC Test: A New In Vitro Assay Allowing Rapid Screening for Antibiotic Sensitivity of Biofilm”, Proceedings of the ASM, 1998, 89, 525; Ceri, et al., “Antifungal and Biocide Susceptibility testing of Candida Biofilms using the MBEC Device”, Proceedings of the Interscience Conference on Antimicrobial Agents and Chemotherapy, 1998, 38, 495; and H. Ceri, et al., “The Calgary Biofilm Device: A New Technology for the Rapid Determination of Antibiotic Susceptibility of Bacterial Biofilms”, Journal of Clinical Microbiology, 1999, 37, 1771-1776.
Six biocide systems were evaluated using the above test procedure and test equipment. Five of these systems were oxidizing biocides, viz., chlorine (from NaOCl), halogen (from NaOCl+NaBr), halogen (from BCDMH), bromine (from DBDMH), and chlorine (from trichloroisocyanuric acid), all expressed as bromine as Br2 in mg/L, so that all test results were placed on the same basis. The sixth biocide was glutaraldehyde, a non-oxidizing biocide.
These biocide systems were used to challenge biofilms of Pseudomonas aeruginosa (ATCC 15442). This is a Gram (−) bacterium which is ubiquitous in microbiological slimes found in many water systems. See in this connection J. W. Costerton and H. Anwar, “Pseudomonas aeruginosa: The Microbe and Pathogen”, in Pseudomonas aeruginosa Infections and Treatment, A. L. Baltch and R. P. Smith editors, Marcel Dekker publishers, New York, 1994. In the field of poultry processing, S. Notermans, J. Dormans, and G. C. Mead, Biofouling, 1991, Vol. 5, pages 21-36, report observation of biofilms in poultry slaughter houses by use of scanning electron microscopy.
In Table 45 the MBEC (minimum biofilm eradication concentration) results presented are for the one-hour biocide contact time used in the test. The values given for the halogen containing biocides are expressed in terms of mg/L of bromine as Br2. The data on the glutaraldehyde is in terms of mg/L as active ingredient. […] In fact, only slightly more than one-half as much bromine from DBDMH was required to remove the biofilm as compared to the total halogen, expressed as Br2, that was required from BCDMH.

[2] = tested on: Salmonella enteritidis ATCC 13076; experiment: Individual bacteria count per bird at pH 8 (Example 3); settings: 25 birds per treatment, control 3969
Method: (§1) This group of tests was conducted to determine the effect of Clorox® bleach, Aquatize® biocide, and 1,3-dibromo-5,5-dimethylhydantoin (DBDMH) on carcass bacteria (Escherichia coli field strain) residual after 1,5-hour in a chill tank “soup”. Tests were conducted with soups at pH 7, pH 8 and pH 9 (adjusted by trisodium phosphate) for whole bird bacteria counts. Tests at pH 8 were conducted for individual bacteria counts.
(§2) In general the tests involved normal processing of 56-day-old birds and immersing the carcasses first in a warm bath containing 10^4 per mL Escherichia coli, 10^4 per mL Salmonella enteritidis, 10^4 per mL Pseudomonas aeruginosa, 10^4 per mL Campylobacter jejuni, and 10^4 per mL spoilage bacteria each from […] strains (Listeria monocytogenes and Shigella sonnei). The carcasses were then immersed in a chill tank “soup”, containing normal organic fluids (blood, fat, skin, and meat particles) and containing the microbiocides on the test.
(§3) The bacteria stock solution used for this group of tests was prepared by growing each bacteria sample in the appropriate broth shown in Table 12. […] The containers were observed and not allowed to develop a heavy, cloudy visual appearance which would indicate that the growth had developed for too long a period. Thus the solutions had the appearance of only being foggy or somewhat unclear.
(§4) The procedure used for whole bird wash sampling was as follows: • 1. All samples were kept at ≦50 degrees Fahrenheit following collection. • 2. Microbiological analyses of samples began within 24 hours of sample collection. • 3. Information on the individual sample identification, date of collection, time of collection (phase during shift), treatment group and location of sample point were recorded on each sample bottle. • 4. At each defined sample time, carcasses were taken individually from the processing line wearing latex or rubber gloves. The gloves were rinsed with alcohol between each collection. • 5. Any excess fluid was drained off from the carcass. Each individual carcass was transferred to a sterile stomacher bag. • 6. To each carcass contained in the sterile stomacher bag, 400 mL of Butterfield's Phosphate Diluent (BPD) was added while making sure to pour the BPD into the inside of the carcass cavity. The carcass was rinsed inside and out with a rocking motion for one minute (ca. 35 RPM). This was best done by grasping the broiler carcass with one hand and the closed top of the bag with the other then rocking with a reciprocal motion in a 18-24 inch arc, assuring that all surfaces (interior and exterior of the carcass) were rinsed. • 7. The rinse solutions from each stomacher bag was transferred into the sample bottles, taking care to ensure that the information on the date of collection, time of collection (phase during shift), treatment group and location of sampler point matched that of the sample. • 8. Each bottle was sealed with parafilm and placed into a styrene container with crushed or dry ice or frozen freezer packs for overnight delivery to a testing laboratory. • 9. All filled styrene containers were held in a chilled (not below freezing) area until within 1 to 2 hours of courier collection for shipment.
(§5) In greater detail the trial events and experimental design used in this group of tests were as follows: • a) Test microorganisms used were: • Escherichia coli ATCC 11229 • Pseudomonas aeruginosa ATCC 15442 • Salmonella enteritidis ATCC 13076 • Shigella sonnei ATCC 9290 • Listeria monocytogenes ATCC 7644 • Campylobacter jejuni ATCC 29428 • b) Test Procedure: All test strains were grown individually at 35° C. for 24 hours in the media specified in Table 12. Cells were harvested by centrifugation at 10,000×g for 10 minutes and washed twice with Butterfield's Phosphate Buffer (BPB of pH 7.2). Cells were resuspended in BPB to obtain a cell suspension of approximately 1.0×10^8 CFU/mL for each microorganism. […]

[3] = tested on: Pseudomonas aeruginosa ATCC 15442; experiment: as above; settings: 25 birds per treatment, control 2783
Method: as §1, §2, §3, §4, §5

[4] = tested on: Campylobacter jejuni ATCC 29428; experiment: as above; settings: 25 birds per treatment, control 1282
Method: as §1, §2, §3, §4, §5

[5] = tested on: Listeria monocytogenes ATCC 7644; experiment: as above; settings: 25 birds per treatment, control 2463
Method: as §1, §2, §3, §4, §5

Row | SMILES | MBEC, avg. [1] | MBEC (minimum biofilm eradication concentration) [1] | average bacteria count per bird, S. enteritidis ([2]; 10 ppm) | average bacteria count per bird, S. enteritidis ([2]; 20 ppm) | average bacteria count per bird, P. aeruginosa ([3]; 10 ppm) | average bacteria count per bird, P. aeruginosa ([3]; 20 ppm) | average bacteria count per bird, C. jejuni ([4]; 10 ppm) | average bacteria count per bird, C. jejuni ([4]; 20 ppm) | average bacteria count per bird, L. monocytogenes ([5]; 10 ppm) | average bacteria count per bird, L. monocytogenes ([5]; 20 ppm)
1 | CC1(C)C(=O)N(Cl)C(=O)N1Br [BCDMH, N,N′-bromochloro-5,5-dimethylhydantoin] | 2.5 mg/L of bromine as Br2 | 2.5, 2.5 mg/L of bromine as Br2 |  |  |  |  |  |  |  | 
2 | CC1(C)C(=O)N(Br)C(=O)N1Br [DBDMH, 1,3-dibromo-5,5-dimethylhydantoin] | 1.4 mg/L of bromine as Br2 | 1.4 mg/L of bromine as Br2 and 1.4, 1.4 mg/L of bromine as Br2 | 560 per bird | 10 per bird | 289 per bird | 9 per bird | 183 per bird | 15 per bird | 262 per bird | 6 per bird
